What was measured:
Format in all cases: cell-based, mouse
NLRP3 inflammasome = experiment: IL-1β release by LPS-primed macrophages stimulated with NLRP3 activators (ELISA); conditions: LPS-primed
Protocol: Macrophage culture and stimulation—Femurs and tibias from C57BL/6 mice, Ampkα1^−/− mice, and Il10rb^−/− mice at 6-10 weeks of age were used to generate bone-marrow-derived macrophages (BMDM) as described (Hornung et al., 2008). Macrophages were cultured in DMEM supplemented with 10% FBS, 20% L929-cell conditioned medium, and 100 U/ml penicillin-streptomycin for 7-10 days. Bone marrow was isolated from MWS Nlrp3^A350VneoRCreT, FCAS Nlrp3^L351PneoCreT and NOMID Nlrp3^D301NneoCreT conditional knock-in mice (Bonar et al., 2012; Brydges et al., 2009), and were allowed to differentiate over 7 days with addition of fresh mouse recombinant GMCSF every three days. (Z)-4-hydroxitamoxifen at 0.4 μg/ml was added to cells 24 hr prior to treatment to induce the mutant Nlrp3 allele. Immortalized mouse BMDM were grown in DMEM supplemented with 10% FBS and 100 U/ml penicillin-streptomycin. All cells were grown at 37° C. with 5% CO2. NLRP3 inflammasome activation was induced priming for 4 hr with ultrapure LPS (100 ng/ml) followed by treatment with the NLRP3 activators ATP (4 mM) and nigericin (10 μM) for 45 min, unless otherwise indicated, and monosodium urate (MSU) crystals (400 μg/ml) and 1,2-dioleoyl-3-trimethylammoniumpropane (DOTAP) liposomes (50 μg/ml) for 3 hr. In Nlrp3 mutant macrophages IL-1b production was induced by LPS treatment for 16 hr at 37° C., whereas FCAS macrophages were incubated at 32° C. without LPS addition. AIM2 inflammasome activation was induced by 4 hr LPS priming and transfection with lipofectamine 3000 and the AIM2 activator poly(dA:dT) (1 μg/ml) for 8 hr. For choline deprivation experiments, the cells were cultured in CMRL1066 medium with or without choline for 2-3 hr before priming with LPS and kept during the experiment.
(§1) Protein Immunoblotting and ELISA—Mitochondria were isolated using Mitochondria Isolation kit. Whole cell lysates were prepared in NP40 buffer containing a protease inhibitor cocktail and a phosphatase inhibitor cocktail, and supernatants were analyzed by SDS-PAGE. […]

BMDM [1] = experiment: Cytosolic mtDNA (QPCR); conditions: RSM932A-pretreated BMDM, LPS-primed, ATP or nigericin
Protocol: Cellular fractionation and measurement of cytosolic mtDNA—BMDM were primed with LPS and stimulated with an NLRP3 inflammasome activator. Cellular fractionation was performed using Mitochondrial Isolation kit (ThermoScientific) according to manufacturer's instructions. Cytosolic mtDNA was analyzed as described (Nakahira et al., 2011). Briefly, DNA was isolated from 300 μl of the cytosolic fractions using All Prep DNA/RNA kit, and mitochondrial DNA encoding cytochrome c oxidase 1 and D-Loop were measured by QPCR with an equal volume of the DNA solution. Nuclear DNA encoding 18S ribosomal RNA and Tert was used for normalization. Primer sequences were obtained from the NIH qPrimerDepot (mouseprimerdepot.nci.nih.gov) and provided by Integrated DNA Technologies, as set forth below.

caspase-1 = experiment: Caspase-1 activation in LPS-primed, ATP-treated BMDM (immunoblot); conditions: ATP-treated BMDM pretreated with RSM932A
Protocol: Macrophage culture and stimulation—Femurs and tibias from C57BL/6 mice, Ampkα1^−/− mice, and Il10rb^−/− mice at 6-10 weeks of age were used to generate bone-marrow-derived macrophages (BMDM) as described (Hornung et al., 2008). Macrophages were cultured in DMEM supplemented with 10% FBS, 20% L929-cell conditioned medium, and 100 U/ml penicillin-streptomycin for 7-10 days. Bone marrow was isolated from MWS Nlrp3^A350VneoRCreT, FCAS Nlrp3^L351PneoCreT and NOMID Nlrp3^D301NneoCreT conditional knock-in mice (Bonar et al., 2012; Brydges et al., 2009), and were allowed to differentiate over 7 days with addition of fresh mouse recombinant GMCSF every three days. (Z)-4-hydroxitamoxifen at 0.4 μg/ml was added to cells 24 hr prior to treatment to induce the mutant Nlrp3 allele. Immortalized mouse BMDM were grown in DMEM supplemented with 10% FBS and 100 U/ml penicillin-streptomycin. All cells were grown at 37° C. with 5% CO2. […]
as §1

BMDM [2] = experiment: Mitochondrial membrane potential (TMRM); conditions: RSM932A-pretreated, LPS-primed; at least as effectively as CCCP
Protocol: (§2) Mitochondrial Function—Mitochondrial membrane potential (Ψm) was measured using TMRM (#T668, Life Technologies) according to manufacturer's instructions. Briefly, RSM932A-pretreated BMDM and shCtrl and shChoKα iBMDM were primed with LPS for 4 hr. Cells were stained with 200 nM TMRM for 30 min at 37° C., and then treated with CCCP (5 μM) for 5 min. After washing twice, fluorescence intensity was determined per manufacturer's instructions using a FilterMax F5 multimode plate reader (Molecular Devices), Mitochondrial reactive oxygen species (mtROS) was measured using MitoSOX (Invitrogen) as described (Zhong et al., 2016c). […] After washing with PBS, fluorescence intensity was determined at 510/580 nm using a FilterMax F5 plate reader. NAD^+/NADH ratio was measured using NAD^+/NADH Cell-Based Assay kit according to manufacturer's instructions (Cayman Chemical Company). […] Absorbance was measured at 450 nm using FilterMax F5 plate reader. Complex V ATP synthase activity was measured in mitochondria isolated from BMDM treated with LPS for 24 hr using Complex V Activity Assay kit (Cayman Chemical Company) according to manufacturer's instructions. Absorbance was measured at 340 nm at 30-second intervals for 30 min using a FilterMax F5 plate reader. Cellular ATP was measured after 24 hr LPS stimulation using CellTiter-Glo Luminescent Assay (Promega) as described (Ip et al., 2017). […]

BMDM [3] = experiment: Mitochondrial reactive oxygen species (MitoSOX); conditions: BMDM pretreated with RSM932A, LPS+DOTAP or LPS+nigericin
Protocol: as §2

`C/[N+](c1ccc(Cl)cc1)=c1\ccn(Cc2ccc(-c3ccc(Cn4cc/c(=[N+](/C)c5ccc(Cl)cc5)c5ccccc54)cc3)cc2)c2ccccc12` [RSM932A] was tested, and the IL-1β production (NLRP3 inflammasome; BMDM pretreated overnight with 5 μM RSM932A, ATP or MSU-stimulated, compared with ChoKα knockdown (reduced)) was “produced a similar effect”, the “reduction of MSU-induced IL-1β release” value (NLRP3 inflammasome; MSU-stimulated BMDM pretreated overnight with 5 μM RSM932A, p<0.005) was 71% and the “amount of cytosolic mtDNA” value (BMDM [1]) was “reduced”. For the same compound, the caspase-1 activation (caspase-1) was “inhibited”, the “mitochondrial membrane potential (Ψm)” value (BMDM [2]) was “reduced” and the “production of mitochondrial reactive oxygen species (mtROS)” value (BMDM [3]) was “attenuated”.

— patent publication US12458659B2, “Methods for treating macrophage-mediated diseases, and methods of identifying agents useful therefore” (The Regents of the University of California, priority 2019, dated 2025)
